Assay results taken from a melting point compilation (Tetko et al.; mined from patent text by program, amines drawn as free bases though some values may be those of a salt).

Row | SMILES | melting point
1 | COc1cc2c(I)cn(C)c2cc1OC | 80 to 90 °C
2 | N#Cc1cccc(C=C2c3ccccc3CCc3ccccc32)c1 | 116 °C
3 | CN(C)Cc1ccc(Cc2cnc(N[N+](=O)[O-])[nH]c2=O)cn1 | 234 to 238 °C
4 | O=C1N(Cc2ccccc2)Cc2cnc(Nc3ccc(N4CCCCC4)cn3)nc2N1C1CCCC1 | 194 to 196 °C
5 | Oc1ccc2oc(-c3ccc(O)c(F)c3)cc2c1 | 218 to 222 °C
6 | CC(N)Cc1ccc(C(N)=O)s1 (racemic) | 91 to 92 °C
7 | O=C1NCCc2cc(Br)ccc21 | 137 to 139 °C
8 | O=Cc1cc(O)c2c(c1O)CCCC2 | 145 °C
9 | O=C(O)c1cc2cccnc2[nH]1 | > 260 °C
10 | Clc1ccc(C2CCN3c4ccccc4C4=NCCN4C23)cc1 (centres undefined) | 158 to 160 °C
11 | COc1ccc(N2C(=O)[C@H](O[Si](C(C)C)(C(C)C)C(C)C)[C@@H]2CC(C)C)cc1 | 59 to 60 °C
12 | C=CCC(C)(C)C(NC(=O)c1ccc(Cl)cc1)NC(=N[N+](=O)[O-])Nc1cccnc1 (centres undefined) | 200 to 203 °C
13 | CC(C)(C)OC(=O)Nc1cc(Cl)c(I)cc1[N+](=O)[O-] | 82 to 84 °C
14 | O=C(CCl)OCCCCOC(=O)CCl | 74 to 76.5 °C
15 | CC(=O)C(=Cc1cccc([N+](=O)[O-])c1)P1(=O)OCCCO1 | 144 to 146 °C
16 | CCCCC#Cc1nc(N)n2nc(-c3ccco3)nc2n1 | 188 to 191 °C
17 | COc1ccc(S(=O)(=O)N2C(=O)C(OCC(=O)N3CCN(c4ccncc4)CC3)(c3ccccc3OC(C)C)c3cc(Cl)ccc32)c(OC)c1 (centres undefined) | 201 to 203 °C
18 | CCN(c1ccc(C(=O)c2ccccc2)cc1[N+](=O)[O-])C1CCCCC1 | 91.5 to 92 °C
19 | CC(C)c1ccc(C=O)c(=O)c(O)c1 | 76 °C
20 | CC(Cc1ccc(OCc2ccncc2)cc1)NCC(O)c1cccc(C(F)(F)F)c1 (centres undefined) | 83 to 90 °C
21 | Cc1csc(C)c1CO | 80 to 81 °C
22 | CCCC12CCC(CC(=O)O)(CC1)CC2 | 85 °C
23 | COc1ccc(Oc2ccccc2-c2cn(C(C)(C)C)c(N)c2C#N)cc1 | 171 to 172 °C
24 | CSc1sc(C(C)=O)cc1[N+](=O)[O-] | 191 to 193 °C
25 | COC(=O)[C@H](Cc1ccccc1)NC(=O)[C@H](Cc1ccccc1)NC(=O)[C@H](CC(N)=O)NC(=O)OC(C)(C)C | 192 to 194 °C
26 | CC(C)(C)NC(=O)c1ccc(I)cc1 | 149 to 150 °C
27 | O=C(C=Cc1ccccc1O)C=Cc1ccccc1O | 155 °C

Row | SMILES | melting point
28 | N#CCCCCC(N)=O | 63 to 65 °C
29 | COC(=O)C1CCC2C3CCC4CC(O)C(Br)CC4(C)C3CCC12C (centres undefined) | 195 to 198 °C
30 | CC(C)(C)NNC(=O)C(C)(C)C | 97 to 105 °C
31 | CCN(CC)CCN1CCN(CCCN2CCCCC2)C1=C(C#N)C#N | 78 to 80 °C
32 | O=C(Nc1ccc(C[C@H](NS(=O)(=O)N2CCCCCC2)C(=O)O)cc1)c1c(Cl)cncc1Cl | 185 °C
33 | CC(C)NC[C@H](O)COc1ccc(Cc2nc(Br)c[nH]2)cc1 | 125 to 127 °C
34 | COc1cc(N)c(Cl)cc1C(=O)N[C@H]1CCN(C2CCC3(CC2)OCC(C)(C)CO3)C[C@H]1OC (relative stereo) | 188 °C
35 | Nc1c(N=O)c(=O)n(CCC2CCCCC2)c(=O)n1CCC1CCCCC1 | 231 to 233 °C
36 | CN1CC(CNNC(=S)Nc2ccccc2)CC2c3cccc4[nH]cc(c34)CC21 (centres undefined) | 205 to 206 °C
37 | COc1cccc(Nc2ccnc(Nc3cc(C)c(OC)c(OC)c3)n2)c1 | 66 to 68 °C
38 | COc1cccc(-c2cc(=O)cc(N3CCOCC3)o2)c1 | 115 to 117 °C
39 | O=C1Cc2ccc(-c3ccccc3)cc2N1 | 173 to 175 °C
40 | Cc1nc(CCO)c2n1-c1ccc(Cl)cc1C(c1ccccc1Cl)=NC2 | 170 to 171 °C
41 | CC(C)C[C@H](CN)CC(=O)O | 192 to 196 °C
42 | O=C(O)C(CSc1nc2ccccc2[nH]1)CS(=O)(=O)c1ccc(-c2ccc(Cl)cc2)cc1 (centres undefined) | 176 to 179 °C
43 | O=C1c2ccccc2C(=O)N1CCCN1CCC(=C(c2ccccc2)c2ccccc2)CC1 | 108 to 110 °C
44 | O=c1c2c(Cl)cc(Cl)cc2n(Cc2ccccc2)c(=O)n1Cc1ccccc1Br | 129 to 132 °C
45 | COc1cc2c(cc1OC)C(C)(C)C(/C=C/C(=O)N1CCC(CCCC3CCN(C(=O)/C=C/C4=Cc5cc(OC)c(OC)cc5C4(C)C)CC3)CC1)=C2 | 192 to 194 °C
46 | CC(C)c1ccc(NC(=O)OC(C)(C)C)c(C(=O)NCC2CCN(C(c3ccccc3)c3ccccc3)CC2)c1 | 88 to 90 °C
47 | CN(SC(Cl)(Cl)Cl)C(=O)ON=C1SCC(=O)NC1(C)C | 189 to 190 °C
48 | CCc1nc2c(-c3cc4c(c(Br)c3C)OCC4)ncnc2n1C(C1CC1)C1CC1 | 179 to 180 °C
49 | CCNc1nc(SC)ncc1CO | 152 to 156 °C
50 | Clc1ccc(Cl)c(COC2COC(c3ccccc3)OC2)c1Cl (centres undefined) | 93.5 to 94 °C
51 | O=C(c1cc(C2=CCCCC2)ccn1)N(O)Cc1ccccc1 | 118 to 122 °C
52 | Cc1oc2c(C)c(C)c(N3Cc4ccccc4C3)c(C)c2c1-c1ccc(C(C)C)cc1 | 126 to 129 °C
53 | CC(C)(NC(=O)CCSC(=O)c1ccccc1)C(=O)O | 142 to 143 °C

Further lines, results first:

Row | melting point | SMILES
54 | 130 to 131 °C | CCOC(=O)Cc1ccc(NC(=O)C(CCc2ccccc2)NS(=O)(=O)c2ccc(Br)cc2)cc1 (racemic)
55 | 213 to 215 °C | COC(=O)CCc1ccc(-n2ncn(-c3ccc(C#N)cc3)c2=O)cc1
56 | 96 to 98 °C | CCCc1cc(=O)oc2c(C(=O)CC)c(O)c3c(c12)OC(C)(C)C=C3
57 | 206 to 207 °C | CCC1(CC)c2cc(N)ccc2-c2ccc(-c3nc4ccccc4s3)cc21
58 | 96 to 98 °C | CCCCC#Cc1ccc(-c2cc(C(F)(F)F)nn2-c2ccc(S(C)(=O)=O)cc2)cc1
59 | 124 °C | COc1cc(Oc2ccc(C(=O)N(C(C)C)C3CCCCC3)cc2)cc(OC)c1OC
60 | 249 °C | CC(C)n1cc(-c2nc(C(N)=O)c(N)nc2-c2cc(F)cc(F)c2)ccc1=O
61 | 272 to 274 °C | C=C1CCc2c(F)c(F)cc3c(=O)c(C(=O)OCC)cn1c23
62 | 165 to 167 °C | COc1cc(Nc2c(C#N)cnc3cc(OCCN4CCN(C)CC4)c(OC)cc23)c(Cl)cc1Cl
63 | < 50 °C | FC(F)(F)Oc1ccc2nc(Cl)sc2c1
64 | 214 to 216 °C | O=C(NCc1ccc(Cl)cc1)c1cnc2c(CNCc3ccccc3)cc(CN3CCOCC3)cc2c1O
65 | 112 to 113 °C | CCCC=C(OC(C)=O)C(=Cc1ccc(Cl)cc1)n1cncn1
66 | 131 to 133 °C | O=C(O)CCCNC(=O)c1ccc(Cl)cc1O
67 | 207 to 209 °C | O=C1N(Cc2ccc3ncnn3c2)c2ccccc2C12COc1cc3c(cc12)OCCO3 (centres undefined)
68 | 149 to 151 °C | COC(=O)c1c(C(=O)OC)c(-c2ccccc2)n2c1Cc1ccccc1-2
69 | 191 °C | CCOC(=O)/C=C/c1ccc(OCCCS(C)(=O)=O)cc1Oc1ncc(C(F)(F)F)cc1Cl
70 | 136 to 138 °C | Cc1nc(-c2cccc(-n3cnc4cc(-c5ccoc5)ccc43)c2)cs1
71 | 89 to 91 °C | O=C(O)CCCCCOc1ccccc1C(=O)c1ccccc1O
72 | 189 to 190 °C | COc1ccc(C2Cc3c(cccc3C(F)(F)F)NC(=O)C2CO)cc1 (centres undefined)
73 | 59 to 61 °C | CCOC(=O)c1ccoc1COc1cc(-c2nn(C)c(OC(F)F)c2Cl)c(F)cc1Cl
74 | 150 to 152 °C | CCCCc1ncc(/C=C(\Cc2cccs2)C(=O)O)n1Cc1ccc(O)c(C)c1
75 | 195 to 198 °C | O=C1CCC(c2ccc(Cl)c(C(F)(F)F)c2)=NN1
76 | 240 °C | Cc1c(C(=O)Nc2ccc(N3CCN(C4CCOCC4)CC3)c(C#N)c2)cnn1-c1ccc(F)cc1

Row | melting point | SMILES
77 | 247 to 252 °C | CC1COc2c(N3CC(N)C(C(F)F)C3)c(F)cc3c(=O)c(C(=O)O)cn1c23 (centres undefined)
78 | 129 to 130 °C | COc1cc(C(C)C)c(NC(=O)CN2CCN(CCCSc3nc4ccccc4o3)CC2)c(C(C)C)c1
79 | 88 to 90 °C | COCC(=O)OC(n1cc(C#N)c(-c2cccc(Cl)c2Cl)c1)C(Cl)(Cl)Cl (centres undefined)
80 | 233 to 234 °C | O=C(O)C1=Cc2cc(Cl)c(Oc3ccc(Cl)cc3Cl)cc2OC1C(F)(F)F (centres undefined)
81 | 50 to 51 °C | CCCCCCCCCCCCCCOc1ccc(C(=O)OC)cc1OC
82 | 49 to 53 °C | CCCOc1nc2ccc(I)cc2c(=O)n1CCC
83 | 272 to 275 °C | CS(=O)(=O)c1ccc(-c2nc(C(F)(F)F)nc(NN)c2-c2ccccc2)cc1
84 | 85 °C | CS(=O)c1c(C2(C)NCCS2)nn(-c2c(Cl)cc(C(F)(F)F)cc2Cl)c1N (centres undefined)
85 | 231 to 233 °C | O=C(CC1CCCCC1)c1c(O)c2cccnc2n(-c2ccccc2)c1=O
86 | 70 to 72 °C | COc1ccc(Cn2nnc(-c3cccc(CO)c3)n2)cc1
87 | 210 to 215 °C | O=C(O)c1cccc(Oc2cccc(-c3nn(Cc4ccc(C(F)(F)P(=O)(O)O)c(Br)c4)c(=Nc4ccc(Cl)c(Cl)c4)s3)c2)c1
88 | 135 to 140 °C | C[C@H](NC(=O)CCCCc1ccccc1)C(=O)N[C@H](CCC(=O)O)C(=O)O
89 | 234 to 236 °C | CCN(CC)CCNC(=O)c1c[nH]c2ccc(I)cc2c1=O
90 | 86 to 88 °C | CC(=O)OCCn1cc(-c2ccccc2)[nH]c1=O
91 | 195 to 197 °C | COc1ccc2c(c1)C(=O)c1ccccc1C2=O
92 | 185 to 187 °C | COc1cc(Cl)c(-n2c(=O)cc(C(F)(F)F)n(C)c2=O)c2sc(Cl)nc12
93 | 60 to 63 °C | Cc1ccc(S(=O)(=O)OCC2Cc3cccc(OS(=O)(=O)C(F)(F)F)c3O2)cc1 (centres undefined)
94 | 139 to 142 °C | CCCN(CCC)C(=O)/C=C/CSc1nc(N)cc(Cl)n1
95 | 108 to 109 °C | CCOc1nn(-c2ccc(C(F)(F)F)cn2)cc1CCCOc1nn(CC)cc1CC(=O)O
96 | 90 to 92 °C | CCc1c(C(=O)C(N)=O)c2ccsc2n1Cc1ccccc1
97 | 180 to 182 °C | Cc1c(=O)n(Cc2ccccc2)c(=O)n2cc(C(=O)NCc3ccc(Cl)c(Cl)c3)sc12
98 | 210 to 212 °C | O=C(O)c1cn(C2CC2)c2c(C(F)(F)F)c(N3CCC(c4ccccn4)C3)c(F)cc2c1=O (centres undefined)
99 | 167 to 170 °C | O=C(O)c1cccc(Cn2cc(C3c4ccccc4C=Cc4ccccc43)c(=S)[nH]c2=S)c1
